Source: US8940892B2, “Triazine derivatives for use in the treatment of malaria” (CSIR, priority 2009, dated 2015)

Key:
[1] = test system: Plasmodium falciparum (FCR-3); assay: Antimalarial activity against Plasmodium falciparum FCR-3; type: cell-based; conditions: FCR3, FCR-3 strain
[2] = Cytotoxicity SRB assay (HeLa); type: cell-based; conditions: human, HeLa cells, read-out: Cytotox SRB (HeLa) IC50
[3] = in vivo; cited from earlier work
[4] = test system: P. falciparum strains resistant to Pyr and CG; conditions: even against strains highly resistant to other DHFR inhibitors; cited from earlier work

Structure (SMILES)	IC50 [1] [µM]	IC50 [2] [µM]	gastrointestinal (GI) tolerability [3]	effective concentration in vitro [4]
NC1=NC(c2cccc(OC(F)(F)F)c2)N(CCCOc2ccc(Cl)cc2)C(N)=N1 (stereo not shown) [No. 40]	> 50	–	–	–
NC1=NC(c2ccc(F)cc2)N(CCCOc2ccc(Cl)c(Cl)c2)C(N)=N1 (stereo not shown) [No. 29]	35.8 ± 8.97	–	–	–
NC1=NC(c2ccccc2F)N(CCCOc2ccc(Cl)cc2)C(N)=N1 (stereo not shown) [No. 23]	0.412 ± 0.08	52.2	–	–
COc1ccc(C2N=C(N)N=C(N)N2CCCOc2ccc(Cl)cc2)cc1 (stereo not shown) [No. 19]	0.046 ± 0.017	25	–	–
NC1=NC(c2ccc(Cl)cc2Cl)N(CCCOc2ccc(Cl)cc2)C(N)=N1 (stereo not shown) [No. 39]	2.51 ± 0.667	12.1	–	–
NC1=NC(c2ccccc2)N(CCCOc2ccccc2F)C(N)=N1 (stereo not shown) [No. 14]	0.525 ± 0.0762	67.6	–	–
NC1=NC(c2ccc(Cl)cc2)N(CCCOc2ccc(Cl)cc2)C(N)=N1 (stereo not shown) [No. 32]	0.156 ± 0.129	15.6	–	–
NC1=NC(c2ccccc2Cl)N(CCCCOc2ccc(Cl)c(Cl)c2)C(N)=N1 (stereo not shown) [No. 7]	2.57 ± 0.7	–	–	–
NC1=NC(c2ccccc2)N(CCCOc2ccc(Cl)cc2Cl)C(N)=N1 (stereo not shown) [No. 11]	0.000151 ± 7.9e-05	32.6	–	–
NC1=NC(c2ccccc2)N(CCCOc2ccc(F)cc2)C(N)=N1 (stereo not shown) [No. 16]	0.395 ± 0.109	–	–	–
NC1=NC(c2ccccc2)N(CCCOc2ccccc2Cl)C(N)=N1 (stereo not shown) [No. 15]	0.171 ± 0.027	88.8	–	–
NC1=NC(c2cccc(Cl)c2F)N(CCCOc2ccc(Cl)c(Cl)c2)C(N)=N1 (stereo not shown) [No. 35]	0.098 ± 0.005	13.6	–	–
NC1=NC(c2ccc(C(F)(F)F)cc2)N(CCCOc2ccc(Cl)c(Cl)c2)C(N)=N1 (stereo not shown) [No. 25]	4.53 ± 0.631	13.1	–	–
NC1=NC(c2cccc(Cl)c2F)N(CCCOc2ccc(Cl)cc2)C(N)=N1 (stereo not shown) [No. 33]	0.679 ± 0.221	23	–	–
NC1=NC(c2ccccc2)N(CCOc2ccc(Cl)cc2)C(N)=N1 (stereo not shown) [No. 5]	4.83 ± 0.689	–	–	–
NC1=NC(c2ccccc2)N(CCOc2ccc(Cl)c(Cl)c2)C(N)=N1 (stereo not shown) [No. 6]	2.12 ± 0.75	–	–	–
NC1=NC(c2ccccc2C(F)(F)F)N(CCCOc2ccc(Cl)c(Cl)c2)C(N)=N1 (stereo not shown) [No. 26]	3.06 ± 0.042	11.8	–	–
CC1(C)N=C(N)N=C(N)N1OCCCOc1cc(Cl)c(Cl)cc1Cl [WR99210]	–	–	unacceptable	nanomolar (nM) range
NC1=NC(c2ccc(SC(F)(F)F)cc2)N(CCCOc2ccc(Cl)cc2)C(N)=N1 (stereo not shown) [No. 36]	2.39 ± 0.03	–	–	–
COc1cc(C)ccc1OCCCN1C(N)=NC(N)=NC1c1ccccc1 (stereo not shown) [No. 42]	0.047 ± 0.01	–	–	–
NC1=NC(c2ccccc2F)N(CCCOc2ccc(Cl)c(Cl)c2)C(N)=N1 (stereo not shown) [No. 28]	0.337 ± 0.095	29.5	–	–
NC1=NC(c2cc(Cl)ccc2Cl)N(CCCOc2ccc(Cl)cc2)C(N)=N1 (stereo not shown) [No. 27]	0.926 ± 0.128	10.9	–	–

Further compounds by falling IC50 [1], results first:

IC50 [1] [µM]	Structure (SMILES)	IC50 [2] [µM]	gastrointestinal (GI) tolerability [3]	effective concentration in vitro [4]
8.61 ± 0.998	NC1=NC(c2ccccc2Cl)N(CCCOc2ccc(Cl)c(Cl)c2)C(N)=N1 (stereo not shown) [No. 31]	13.7	–	–
8.15 ± 4.13	CC1(C)N=C(N)N=C(N)N1c1ccc(Cl)cc1 [No. 1, Cycloguanil, reference compound]	–	–	–
7.16 ± 0.626	NC1=NC(c2ccccc2)N(CCc2ccc(Cl)cc2)C(N)=N1 (stereo not shown) [No. 3]	–	–	–
4.77 ± 0.297	NC1=NC(c2ccccc2)N(CCc2ccc(Cl)c(Cl)c2)C(N)=N1 (stereo not shown) [No. 4]	–	–	–
4.32 ± 1.19	NC1=NC(c2ccccc2)N(Cc2ccc(Cl)c(Cl)c2)C(N)=N1 (stereo not shown) [No. 2]	–	–	–
3.98 ± 0.612	NC1=NC(c2ccc(C(F)(F)F)cc2)N(CCCCCOc2ccc(Cl)cc2)C(N)=N1 (stereo not shown) [No. 44]	–	–	–
3.37 ± 0.168	NC1=NC(c2ccc(C(F)(F)F)cc2)N(CCCOc2ccc(Cl)cc2)C(N)=N1 (stereo not shown) [No. 10]	11	–	–
3.24 ± 0.451	NC1=NC(c2ccccc2C(F)(F)F)N(CCCOc2ccc(Cl)cc2)C(N)=N1 (stereo not shown) [No. 24]	19	–	–
1.59	NC1=NC(c2ccc(Cl)c(F)c2)N(CCCOc2ccc(Cl)cc2)C(N)=N1 (stereo not shown) [No. 20]	13.7	–	–
0.859	NC1=NC(c2ccccc2Cl)N(CCCOc2ccc(Cl)cc2)C(N)=N1 (stereo not shown) [No. 18]	15.7	–	–
0.591 ± 0.077	NC1=NC(c2ccc(Cl)c(F)c2)N(CCCOc2ccc(Cl)c(Cl)c2)C(N)=N1 (stereo not shown) [No. 30]	14.5	–	–
0.163 ± 0.05	NC1=NC(c2ccc(F)cc2F)N(CCCOc2ccc(Cl)cc2)C(N)=N1 (stereo not shown) [No. 38]	31.8	–	–
0.156 ± 0.012	NC1=NC(c2cccc(Cl)c2)N(CCCOc2ccc(Cl)cc2)C(N)=N1 (stereo not shown) [No. 21]	14.1	–	–
0.155 ± 0.048	NC1=NC(c2ccc(F)cc2)N(CCCOc2ccc(Cl)cc2)C(N)=N1 (stereo not shown) [No. 22]	–	–	–
0.077 ± 0.032	COc1cccc(C2N=C(N)N=C(N)N2CCCOc2ccc(Cl)cc2)c1F (stereo not shown) [No. 37]	33.3	–	–
0.061 ± 0.036	NC1=NC(c2ccc(Cl)cc2)N(CCCOc2ccc(Cl)c(Cl)c2)C(N)=N1 (stereo not shown) [No. 34]	13.4	–	–
0.0603 ± 0.0087	COc1ccc(OCCCN2C(N)=NC(N)=NC2c2ccccc2)cc1 (stereo not shown) [No. 13]	253	–	–
0.055 ± 0.01	NC1=NC(c2ccccc2)N(CCCOc2ccc(Cl)cc2)C(N)=N1 (stereo not shown) [No. 8]	39	–	–
0.05 ± 0.04	Cc1cccc(C2N=C(N)N=C(N)N2CCCOc2ccc(Cl)cc2)c1 (stereo not shown) [No. 41]	–	–	–
0.0444 ± 0.0068	NC1=NC(c2ccccc2)N(CCCOc2ccc(C(F)(F)F)cc2)C(N)=N1 (stereo not shown) [No. 17]	–	–	–
0.0398 ± 0.01	NC1=NC(c2ccccc2)N(CCCOc2ccc(Cl)c(Cl)c2)C(N)=N1 (stereo not shown) [No. 9]	33.5	–	–
0.0307 ± 0.0102	NC1=NC(c2ccccc2)N(CCCOc2cccc(C(F)(F)F)c2)C(N)=N1 (stereo not shown) [No. 12]	14.2	–	–
0.024 ± 0.017	NC1=NC(c2ccccc2)N(CCCOc2ccc(Br)cc2)C(N)=N1 (stereo not shown) [No. 43]	–	–	–
